Measured values taken from PubChem BioAssay AID248 (DTP/NCI, 2004).
“And” between values parts separate entries of the source, which are not always exact repeats. Equal entries are not always repeated. Inconclusive results and toxic doses are left out.

System: L1210 leukemia ip in BDF1 mice, survival T/C
Assay: NCI In Vivo Anticancer Drug Screen. Data for tumor model L1210 Leukemia (intraperitoneal) in B6D2F1 (BDF1) mice
Settings: endpoint: mean survival time, higher = longer survival
In short: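 Tumor was transplanted into mice, which were then dosed with test compound or vehicle alone. Survival was recorded for each group, and the treated figure was expressed relative to the control figure.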

[1] = dose: 50.0 mg/kg/injection, schedule: Q01DX001 (ip), vehicle: saline
[2] = dose: 100.0 mg/kg/injection, schedule: Q01DX001 (ip), vehicle: carboxymethylcellulose (CMC)
[3] = dose: 100.0 mg/kg/injection, schedule: Q01DX001 (ip), vehicle: saline
[4] = dose: 100.0 mg/kg/injection, schedule: Q04DX003 (ip), vehicle: saline
[5] = dose: 200.0 mg/kg/injection, schedule: Q04DX003 (ip), vehicle: saline
[6] = dose: 400.0 mg/kg/injection, schedule: Q04DX003 (ip), vehicle: saline
[7] = dose: 100.0 mg/kg/injection, schedule: Q04DX003 (ip), vehicle: Klucel (hydroxypropylcellulose) (HPC)
[8] = dose: 200.0 mg/kg/injection, schedule: Q04DX003 (ip), vehicle: Klucel (hydroxypropylcellulose) (HPC)
[9] = dose: 400.0 mg/kg/injection, schedule: Q04DX003 (ip), vehicle: Klucel (hydroxypropylcellulose) (HPC)
[10] = dose: 100.0 mg/kg/injection, schedule: Q04DX003 (ip), vehicle: saline with Tween-80
[11] = dose: 200.0 mg/kg/injection, schedule: Q04DX003 (ip), vehicle: saline with Tween-80
[12] = dose: 400.0 mg/kg/injection, schedule: Q04DX003 (ip), vehicle: saline with Tween-80
[13] = dose: 25.0 mg/kg/injection, schedule: Q01DX001 (ip), vehicle: Klucel (hydroxypropylcellulose) (HPC)
[14] = dose: 50.0 mg/kg/injection, schedule: Q01DX001 (ip), vehicle: Klucel (hydroxypropylcellulose) (HPC)
[15] = dose: 100.0 mg/kg/injection, schedule: Q01DX001 (ip), vehicle: Klucel (hydroxypropylcellulose) (HPC)
[16] = dose: 100.0 mg/kg/injection, schedule: Q01DX009 (ip), vehicle: Klucel (hydroxypropylcellulose) (HPC)
[17] = dose: 200.0 mg/kg/injection, schedule: Q01DX009 (ip), vehicle: Klucel (hydroxypropylcellulose) (HPC)
[18] = dose: 100.0 mg/kg/injection, schedule: Q01DX001 (ip), vehicle: saline with Tween-80
[19] = dose: 200.0 mg/kg/injection, schedule: Q01DX001 (ip), vehicle: saline with Tween-80
[20] = dose: 400.0 mg/kg/injection, schedule: Q01DX001 (ip), vehicle: saline with Tween-80

`CCOC(=O)C(=O)Nc1ccccc1C(=O)O` was tested, and the T/C (dose: 100.0 mg/kg/injection, schedule: Q04DX009 (ip), vehicle: saline with Tween-80) was 96 % of control, the T/C (dose: 200.0 mg/kg/injection, schedule: Q04DX009 (ip), vehicle: saline with Tween-80) was 103 % of control and the T/C (dose: 400.0 mg/kg/injection, schedule: Q04DX009 (ip), vehicle: saline with Tween-80) was 102 % of control.

In the case of `Oc1ccc(/C=N/Nc2nnc(N/N=C/c3ccc(O)cc3O)c3ccccc23)c(O)c1`, the T/C (dose: 2.5 mg/kg/injection, schedule: Q01DX015 (ip), vehicle: carboxymethylcellulose (CMC)) is reported as 97 % of control, the T/C (dose: 5.0 mg/kg/injection, schedule: Q01DX009 (ip), vehicle: saline) is reported as 104 % of control and the T/C (dose: 5.0 mg/kg/injection, schedule: Q01DX015 (ip), vehicle: carboxymethylcellulose (CMC)) is reported as 98 % of control. The T/C (dose: 10.0 mg/kg/injection, schedule: Q01DX009 (ip), vehicle: saline) was 109 % of control, the T/C (dose: 10.0 mg/kg/injection, schedule: Q01DX015 (ip), vehicle: carboxymethylcellulose (CMC)) was 110 % of control and the T/C (dose: 19.0 mg/kg/injection, schedule: Q01DX015 (ip), vehicle: carboxymethylcellulose (CMC)) was 120 % of control. For the same compound, the T/C (dose: 20.0 mg/kg/injection, schedule: Q01DX009 (ip), vehicle: saline) was 106 % of control, the T/C (dose: 32.0 mg/kg/injection, schedule: Q01DX015 (ip), vehicle: carboxymethylcellulose (CMC)) was 114 % of control and the T/C [1] was 98 % of control. For the same compound, the T/C [2] was 111 % of control, the T/C [3] was 97 % of control and the T/C (dose: 200.0 mg/kg/injection, schedule: Q01DX001 (ip), vehicle: carboxymethylcellulose (CMC)) was 121 % of control. For the same compound, the T/C (dose: 200.0 mg/kg/injection, schedule: Q01DX001 (ip), vehicle: saline) was 106 % of control and the T/C (dose: 600.0 mg/kg/injection, schedule: Q01DX001 (ip), vehicle: carboxymethylcellulose (CMC)) was 117 % of control.

For `CCC1(CCC#N)CCC(N)=CC1=O` (configuration not stated), the T/C (dose: 100.0 mg/kg/injection, schedule: Q01DX009 (ip), vehicle: saline with Tween-80) was 97 % of control, the T/C (dose: 200.0 mg/kg/injection, schedule: Q01DX009 (ip), vehicle: saline with Tween-80) was 106 % of control and the T/C (dose: 400.0 mg/kg/injection, schedule: Q01DX009 (ip), vehicle: saline with Tween-80) was 97 % of control.

With `COc1cc2c(cc1OC)Cc1cc(OC)c(OC)cc1Cc1cc(OC)c(OC)cc1C2` the T/C [4] was 92 % of control, the T/C [5] was 96 % of control and the T/C [6] was 97 % of control.

`c1ccc(C2=NCN=C2c2ccccc2)cc1` was tested, and the T/C [7] was 99 % of control, the T/C [8] was 101 % of control and the T/C [9] was 92 % of control.

For `Cc1cc(S(=O)(=O)O)c(N)cc1Cl`, the T/C [10] was 99 % of control, the T/C [11] was 97 % of control and the T/C [12] was 100 % of control.

In the case of `Fc1ccc(C(Cl)Cl)cc1`, the T/C (dose: 100.0 mg/kg/injection, schedule: Q01DX009 (ip), vehicle: saline) is reported as 102 % of control, the T/C [4] is reported as 97 % of control and 86 % of control and the T/C (dose: 200.0 mg/kg/injection, schedule: Q01DX009 (ip), vehicle: saline) is reported as 99 % of control. The T/C [5] was 101 % of control and the T/C [6] was 101 % of control and 89 % of control.

In the case of `CC(N)C(=O)NC(C)C(=O)O` (configuration not stated), the T/C [13] is reported as 97 % of control, the T/C (dose: 25.0 mg/kg/injection, schedule: Q01DX001 (ip), vehicle: saline) is reported as 102 % of control and the T/C (dose: 25.0 mg/kg/injection, schedule: Q04DX002 (ip), vehicle: saline) is reported as 102 % of control. For the same compound, the T/C [14] was 97 % of control, the T/C [1] was 97 % of control and the T/C (dose: 50.0 mg/kg/injection, schedule: Q04DX002 (ip), vehicle: saline) was 96 % of control. For the same compound, the T/C [15] was 97 % of control, the T/C [3] was 93 % of control and the T/C (dose: 100.0 mg/kg/injection, schedule: Q04DX002 (ip), vehicle: saline) was 102 % of control.

`O=C(/C(=C\c1ccccc1)CO)c1ccccc1` was tested, and the T/C (dose: 12.5 mg/kg/injection, schedule: Q01DX009 (ip), vehicle: saline with Tween-80) was 89 % of control, the T/C (dose: 25.0 mg/kg/injection, schedule: Q01DX009 (ip), vehicle: saline with Tween-80) was 89 % of control and the T/C (dose: 50.0 mg/kg/injection, schedule: Q01DX009 (ip), vehicle: saline with Tween-80) was 87 % of control. For the same compound, the T/C (dose: 62.0 mg/kg/injection, schedule: Q01DX009 (ip), vehicle: saline with Tween-80) was 106 % of control.

For `C=CCSc1ncnc2c1ncn2C1OC(CO)C(O)C1O` (configuration not stated), the T/C (dose: 25.0 mg/kg/injection, schedule: Q01DX Z (ip), vehicle: saline) was 109 % of control and 120 % of control, the T/C (dose: 30.0 mg/kg/injection, schedule: Q01DX Z (ip), vehicle: saline) was 106 % of control and the T/C (dose: 45.0 mg/kg/injection, schedule: Q01DX Z (ip), vehicle: saline) was 108 % of control. For the same compound, the T/C (dose: 78.0 mg/kg/injection, schedule: Q01DX001 (ip), vehicle: carboxymethylcellulose (CMC)) was 112 % of control, the T/C (dose: 99.0 mg/kg/injection, schedule: Q01DX Z (ip), vehicle: saline) was 162 % of control and the T/C [2] was 115 % of control. The T/C (dose: 100.0 mg/kg/injection, schedule: Q01DX Z (ip), vehicle: saline) was 166 % of control, the T/C (dose: 118.0 mg/kg/injection, schedule: Q01DX001 (ip), vehicle: carboxymethylcellulose (CMC)) was 123 % of control and the T/C (dose: 151.0 mg/kg/injection, schedule: Q01DX Z (ip), vehicle: saline) was 170 % of control and 181 % of control. For the same compound, the T/C (dose: 200.0 mg/kg/injection, schedule: Q01DX009 (ip), vehicle: carboxymethylcellulose (CMC)) was 93 % of control, the T/C (dose: 200.0 mg/kg/injection, schedule: Q01DX Z (ip), vehicle: saline) was 150 % of control and the T/C (dose: 266.0 mg/kg/injection, schedule: Q01DX001 (ip), vehicle: carboxymethylcellulose (CMC)) was 150 % of control. For the same compound, the T/C (dose: 300.0 mg/kg/injection, schedule: Q01DX Z (ip), vehicle: saline) was 96 % of control and the T/C (dose: 338.0 mg/kg/injection, schedule: Q01DX Z (ip), vehicle: saline) was 111 % of control.

For `O=C(NCCCl)Nn1c2ccccc2c2ccccc21`, the T/C [16] was 86 % of control, the T/C [7] was 104 % of control and the T/C [17] was 95 % of control. For the same compound, the T/C [8] was 98 % of control, the T/C (dose: 400.0 mg/kg/injection, schedule: Q01DX009 (ip), vehicle: Klucel (hydroxypropylcellulose) (HPC)) was 88 % of control and the T/C [9] was 106 % of control.

`COc1ccc(NC(=O)CCCc2ccc(N(CCCl)CCCl)cc2)cc1` was tested, and the T/C (dose: 4.0 mg/kg/injection, schedule: Q12HX018 (ip), vehicle: other) was 106 % of control, the T/C (dose: 6.0 mg/kg/injection, schedule: Q12HX018 (ip), vehicle: other) was 121 % of control and the T/C (dose: 8.0 mg/kg/injection, schedule: Q12HX018 (ip), vehicle: other) was 110 % of control.

For `CCCCCCCCCCCCCCCCC1CC2CCCCC2C1` (configuration not stated), the T/C [18] was 100 % of control, the T/C [19] was 93 % of control and the T/C [20] was 94 % of control.

For `O=C(NCCc1ccccc1)C(Cl)Cl`, the T/C (dose: 50.0 mg/kg/injection, schedule: Q01DX009 (ip), vehicle: Klucel (hydroxypropylcellulose) (HPC)) was 93 % of control, the T/C [16] was 93 % of control and the T/C [7] was 103 % of control. The T/C [17] was 94 % of control, the T/C [8] was 95 % of control and the T/C [9] was 101 % of control.

In the case of `CSC(C#N)S(C)(=O)=O` (configuration not stated), the T/C [13] is reported as 109 % of control, the T/C [14] is reported as 100 % of control and the T/C [15] is reported as 103 % of control and 108 % of control.

`COC(=O)C(Cl)C(Cl)c1ccccc1` (configuration not stated) was tested, and the T/C [10] was 97 % of control, the T/C [11] was 97 % of control and the T/C [12] was 94 % of control.

`CCCCP(=S)(N1CCCCC1)N1CCCCC1` was tested, and the T/C [4] was 95 % of control, the T/C [5] was 97 % of control and the T/C [6] was 86 % of control.

For `CCCCCCCCCCCCCCCC(=O)N(CCCCN(CCCN(C)C)C(=O)CCCCCCCCCCCCCCC)CCCN(C)C`, the T/C [10] was 91 % of control.

In the case of `Nc1ncnc(N)c1NC(=O)c1cc(Cl)c(OCc2ccccc2)c(Cl)c1`, the T/C [18] is reported as 91 % of control, the T/C [19] is reported as 96 % of control and the T/C [20] is reported as 96 % of control.
